Experimental data from PubChem BioAssay AID248 (DTP/NCI, 2004).
Inconclusive results and toxic doses are left out. Cut-off read from the data, not from the text of the source: active = T/C of 150% or more; inactive = T/C below 125%.

Test system: L1210 leukemia ip in BDF1 mice, survival T/C
Assay: NCI In Vivo Anticancer Drug Screen. Data for tumor model L1210 Leukemia (intraperitoneal) in B6D2F1 (BDF1) mice
Details: endpoint: mean survival time, higher = longer survival
Outline: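 Transplanted-tumor mice were given test agent; controls received vehicle only. Survival readings from the two groups were divided (treated over control).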

[1] = dose: 100.0 mg/kg/injection, schedule: Q01DX001 (ip), vehicle: saline
[2] = dose: 200.0 mg/kg/injection, schedule: Q01DX001 (ip), vehicle: saline
[3] = dose: 100.0 mg/kg/injection, schedule: Q04DX003 (ip), vehicle: saline
[4] = dose: 50.0 mg/kg/injection, schedule: Q01DX009 (ip), vehicle: Klucel (hydroxypropylcellulose) (HPC)
[5] = dose: 100.0 mg/kg/injection, schedule: Q01DX009 (ip), vehicle: Klucel (hydroxypropylcellulose) (HPC)
[6] = dose: 200.0 mg/kg/injection, schedule: Q01DX009 (ip), vehicle: Klucel (hydroxypropylcellulose) (HPC)
[7] = dose: 100.0 mg/kg/injection, schedule: Q04DX003 (ip), vehicle: saline with Tween-80
[8] = dose: 200.0 mg/kg/injection, schedule: Q04DX003 (ip), vehicle: saline with Tween-80
[9] = dose: 400.0 mg/kg/injection, schedule: Q01DX001 (ip), vehicle: saline
[10] = dose: 400.0 mg/kg/injection, schedule: Q04DX003 (ip), vehicle: saline with Tween-80
[11] = dose: 100.0 mg/kg/injection, schedule: Q01DX009 (ip), vehicle: saline
[12] = dose: 100.0 mg/kg/injection, schedule: Q04DX003 (ip), vehicle: Klucel (hydroxypropylcellulose) (HPC)
[13] = dose: 200.0 mg/kg/injection, schedule: Q04DX003 (ip), vehicle: Klucel (hydroxypropylcellulose) (HPC)
[14] = dose: 400.0 mg/kg/injection, schedule: Q04DX003 (ip), vehicle: Klucel (hydroxypropylcellulose) (HPC)
[15] = dose: 100.0 mg/kg/injection, schedule: Q01DX009 (ip), vehicle: saline with Tween-80
[16] = dose: 200.0 mg/kg/injection, schedule: Q01DX009 (ip), vehicle: saline with Tween-80
[17] = dose: 400.0 mg/kg/injection, schedule: Q01DX009 (ip), vehicle: saline with Tween-80
[18] = dose: 50.0 mg/kg/injection, schedule: Q01DX001 (ip), vehicle: carboxymethylcellulose (CMC)
[19] = dose: 100.0 mg/kg/injection, schedule: Q01DX001 (ip), vehicle: carboxymethylcellulose (CMC)
[20] = dose: 200.0 mg/kg/injection, schedule: Q01DX001 (ip), vehicle: carboxymethylcellulose (CMC)
[21] = dose: 400.0 mg/kg/injection, schedule: Q01DX001 (ip), vehicle: carboxymethylcellulose (CMC)
[22] = dose: 12.5 mg/kg/injection, schedule: Q01DX009 (ip), vehicle: saline
[23] = dose: 25.0 mg/kg/injection, schedule: Q01DX009 (ip), vehicle: saline

Measured: T/C

Cc1cc(C(=O)O)c(C)c2c1sc1ccccc12
inactive: [1] 87 % of control | [2] 107 % of control

CNC(=O)OCCOC(=O)NC
inactive: dose: 100.0 mg/kg/injection, schedule: Q01DX001 (ip), vehicle: other 98 % of control | dose: 100.0 mg/kg/injection, schedule: Q01DX009 (ip), vehicle: other 96 % of control | dose: 100.0 mg/kg/injection, schedule: Q04DX003 (ip), vehicle: other 102 % of control | dose: 200.0 mg/kg/injection, schedule: Q01DX001 (ip), vehicle: other 109 % of control | dose: 200.0 mg/kg/injection, schedule: Q01DX009 (ip), vehicle: other 102 % of control | dose: 200.0 mg/kg/injection, schedule: Q04DX003 (ip), vehicle: other 97 % of control | dose: 400.0 mg/kg/injection, schedule: Q01DX001 (ip), vehicle: other 98 % of control | dose: 400.0 mg/kg/injection, schedule: Q01DX009 (ip), vehicle: other 89 % of control | dose: 400.0 mg/kg/injection, schedule: Q04DX003 (ip), vehicle: other 111 % of control

NC1=NC(CCc2ccccc2)N(c2ccc(Cl)cc2)C(N)=N1 (stereo not given)
inactive: dose: 14.0 mg/kg/injection, schedule: Q01DX009 (ip), vehicle: steriod suspending solution 98 % of control | dose: 24.0 mg/kg/injection, schedule: Q01DX009 (ip), vehicle: steriod suspending solution 97 % of control | dose: 39.0 mg/kg/injection, schedule: Q01DX009 (ip), vehicle: steriod suspending solution 100 % of control | dose: 65.0 mg/kg/injection, schedule: Q01DX009 (ip), vehicle: steriod suspending solution 100 % of control

CCC(C1CCC(O)CC1)C(CC)C1CCC(c2ccc(=O)oc2)C1 (stereo not given)
inactive: dose: 25.0 mg/kg/injection, schedule: Q04DX003 (ip), vehicle: saline 100 % of control | dose: 50.0 mg/kg/injection, schedule: Q04DX003 (ip), vehicle: saline 103 % of control | [3] 103 % of control

Cc1c(-c2ccccc2)nn(O)c1-c1ccccc1
inactive: [4] 102 % of control | [5] 102 % of control | [6] 94 % of control

CNC(=O)Nc1nc2ccccc2[nH]1
inactive: [1] 103 % of control | [7] 109 % of control | [2] 115 % of control | [8] 109 % of control | [9] 100 % of control

Cc1cc(C)cc(C(C)(C)C)c1
inactive: [7] 92 % of control | [8] 92 % of control | [10] 95 % of control

CC(C)(C)N
inactive: dose: 100.0 mg/kg/injection, schedule: Q04DX002 (ip), vehicle: saline 101 % of control | dose: 200.0 mg/kg/injection, schedule: Q04DX002 (ip), vehicle: saline 101 % of control | dose: 400.0 mg/kg/injection, schedule: Q04DX002 (ip), vehicle: saline 97 % of control

NC(=O)Nc1n[nH]c(-c2ccccc2)n1
inactive: [11] 90 % of control

CCNC(=O)OCC1C2CCC(O2)C1COC(=O)NCC (stereo not given)
inactive: dose: 100.0 mg/kg/injection, schedule: Q04DX002 (ip), vehicle: Klucel (hydroxypropylcellulose) (HPC) 101 % of control | dose: 200.0 mg/kg/injection, schedule: Q04DX002 (ip), vehicle: Klucel (hydroxypropylcellulose) (HPC) 98 % of control | dose: 400.0 mg/kg/injection, schedule: Q04DX002 (ip), vehicle: Klucel (hydroxypropylcellulose) (HPC) 98 % of control

NNC(=O)c1ccc(Br)cc1
inactive: dose: 25.0 mg/kg/injection, schedule: Q01DX009 (ip), vehicle: Klucel (hydroxypropylcellulose) (HPC) 93 % of control | [4] 96 % of control | [5] 104 % of control | [12] 94 % of control | [13] 103 % of control | [14] 106 % of control

COc1cc(C=Nc2cc(Br)c(O)c(Br)c2)ccc1N(CCCCl)CCCCl
inactive: [12] 97 % of control | [13] 100 % of control | [14] 102 % of control

CN(C)c1n[nH]c(=O)[nH]c1=O
inactive: [1] 91 % of control | [2] 114 % of control | [9] 93 % of control

CC(=O)CCCc1ccccc1
inactive: [11] 92 % of control | [3] 100 % of control | dose: 200.0 mg/kg/injection, schedule: Q01DX009 (ip), vehicle: saline 98 % of control | dose: 200.0 mg/kg/injection, schedule: Q04DX003 (ip), vehicle: saline 100 % of control | dose: 400.0 mg/kg/injection, schedule: Q01DX009 (ip), vehicle: saline 104 % of control

O=C1c2ccccc2S(=O)(=O)N1CC(O)COc1ccc(Cl)cc1 (stereo not given)
inactive: [15] 93 % of control | [16] 102 % of control | [17] 101 % of control

COc1ccc(C2(O)C3CCC(C3)C2(C)C)cc1 (stereo not given)
inactive: [18] 89 % of control | [19] 89 % of control | [20] 89 % of control | [21] 95 % of control

Cc1cc(OC(=O)Nc2cccc([N+](=O)[O-])c2)cc(C)c1Cl
inactive: [5] 100 % of control | [6] 90 % of control | dose: 400.0 mg/kg/injection, schedule: Q01DX009 (ip), vehicle: Klucel (hydroxypropylcellulose) (HPC) 93 % of control

CCCCNC(=O)Nc1ccc(C(=O)O)c(O)c1
inactive: [12] 100 % of control | [13] 94 % of control | [14] 93 % of control

c1ccc2c[n+]3ccccc3cc2c1
inactive: dose: 6.25 mg/kg/injection, schedule: Q01DX009 (ip), vehicle: saline 103 % of control | [22] 100 % of control | [23] 111 % of control

COC(=O)C1CCCN(C)C1c1c[nH]c2ccccc12 (stereo not given)
inactive: dose: 75.0 mg/kg/injection, schedule: Q01DX001 (ip), vehicle: other 90 % of control | dose: 150.0 mg/kg/injection, schedule: Q01DX001 (ip), vehicle: other 106 % of control

COC(=O)C(N=O)C(=O)OC
inactive: [1] 104 % of control | [2] 109 % of control | [9] 106 % of control

CSc1cccc(NC(=O)Nc2ccc(Cl)cc2)c1
inactive: dose: 100.0 mg/kg/injection, schedule: Q04DX002 (ip), vehicle: saline with Tween-80 104 % of control | dose: 200.0 mg/kg/injection, schedule: Q04DX002 (ip), vehicle: saline with Tween-80 93 % of control | dose: 400.0 mg/kg/injection, schedule: Q04DX002 (ip), vehicle: saline with Tween-80 89 % of control

COc1ccc(Oc2cc(CC3c4cc(OC)c(OC)cc4CCN3C)c([N+](=O)[O-])cc2OC)cc1OC (stereo not given)
inactive: [22] 93 % of control | [23] 102 % of control | dose: 50.0 mg/kg/injection, schedule: Q01DX009 (ip), vehicle: saline 96 % of control | [11] 108 % of control

C[C@]12CC[C@H](O)C[C@H]1CC[C@@H]1[C@@H]2CC[C@]2(C)[C@@H](C3=CC(=O)OC3)[C@@H](O)C[C@]12O
inactive: [18] 101 % of control | [19] 107 % of control | [20] 101 % of control | [21] 102 % of control

CCCCOCN(C(=O)CCl)c1c(CC)cccc1CC
inactive: [15] 101 % of control | [16] 110 % of control | [17] 89 % of control

CC(C)/C(=N\Nc1ccc([N+](=O)[O-])cc1[N+](=O)[O-])c1ccccc1
inactive: [7] 96 % of control | [8] 106 % of control | [10] 100 % of control

Cc1cc2ccccc2nc1-c1ccccc1F
inactive: [1] 97 % of control | [2] 94 % of control | [9] 88 % of control

CC1(C)CCC2=C(O1)C(=O)c1ccccc1C2=O
inactive: dose: 100.0 mg/kg/injection, schedule: Q01DX001 (ip), vehicle: saline with Tween-80 102 % of control | dose: 200.0 mg/kg/injection, schedule: Q01DX001 (ip), vehicle: saline with Tween-80 104 % of control | dose: 400.0 mg/kg/injection, schedule: Q01DX001 (ip), vehicle: saline with Tween-80 94 % of control

CC(=O)N1C=Cc2ccccc2C1C1c2ccccc2C=CN1C(C)=O (stereo not given)
inactive: [12] 98 % of control | [13] 96 % of control | [14] 93 % of control
